Patent publication US11634451B2, “Method for the site-specific enzymatic labelling of nucleic acids in vitro by incorporation of unnatural nucleotides” (The Scripps Research Institute, priority 2013, dated 2023)

Columns and labels:
Assay type in all cases: biochemical
[1] = biological target: T1, Klenow fragment of E. coli DNA polymerase I (Escherichia coli, UniProt P00582); test: Presteady-state kinetics: incorporation of unnatural triphosphate opposite dNaM and extension; conditions: 2 μM dCTP, 10 s, dXTPs paired with dNaM; for % Incorporation: 40 nM unnatural triphosphate; for % Extension: 10 μM unnatural triphosphate
T1 construct: the Klenow fragment of E. coli DNA polymerase I
Text: Exemplary methods for analyzing unnatural base pair synthesis efficiency (insertion of an unnatural nucleobase opposite its partner in a template) and extension (continued primer elongation) are provided herein. One or both of the nucleobases in an unnatural base pair, in various embodiments, may be a linker-derivatized unnatural nucleobase. One method uses a presteady-state assay. The assay is based on determining, under a fixed set of conditions, the amount of a primer (e.g. 23-mer) that is extended by addition of the unnatural nucleotide opposite its complementary nucleotide in a template (e.g., 45-mer) by a polymerase (e.g., the Klenow fragment of E. coli DNA polymerase I). In this assay, the efficiency of unnatural base pair synthesis is characterized by measuring the percent incorporation (% inc) at a given concentration of the unnatural and next correct triphosphate, for example using a ratio such as [24-mer+25-mer]/[23-mer+24-mer+25-mer]. In this assay, the efficiency of extension is characterized by measuring the percent extension (% ext) at a given concentration of the next correct nucleotide and saturating concentrations of unnatural nucleotide, for example using a ratio [25-mer]/[24-mer+25-mer]. Results from an exemplary presteady-state assay are shown in Table 1, wherein the unnatural triphosphate is 5SICS, FPT1, TPT1, TPT2, TPT3, FTPT3, TPT3^PA, or 5SICS^PA. In some embodiments, the percent incorporation of an unnatural nucleobase is at least 60%, 65%, 70%, 71%, 72%, 73%, 74%, 75%, 76%, 77%, 78%, 79%, 80%, 81%, 82%, 83%, 84%, 85%, 86%, 87%, 88%, 89%, 90%, 91%, 92%, 93%, 94%, 95%, 96%, 97%, 98%, or 99%. In some embodiments, the percent extension of a next correct nucleotide following insertion of an unnatural nucleobase is at least 30%, 31%, 32%, 33%, 34%, 35%, 36%, 37%, 38%, 39%, 40%, 41%, 42%, 43%, 44%, 45%, 46%, 47%, 48%, 49%, 50%, 55%, 60%, 65%, 70%, 75%, 80%, 85%, 90% or greater. In some embodiments, synthesis efficiency is increased by derivatizing the unnatural nucleobase. For example, by the addition of a linker, a protected linker, and/or a linker conjugated to a cargo molecule. As another example, derivatization includes atom substitutions, additions, or deletions. In some embodiments, percent extension is increased by derivatizing the unnatural nucleobase. Derivatization of an unnatural nucleobase, in some instances, increases by at least 1-2 orders of magnitude the efficiency of insertion of the nucleotide complementary to the base pair in the template. This increase in efficiency may be due to an increase kcat and a decreased KM.
^aIncorporation assay conditions: 40 nM unnatural triphosphate, […], 10s. ^bExtension assay conditions: […], 2 μM dCTP, 10 s. dXTPs are paired with dNaM.

OneTaq polymerase = test: PCR-based screen and amplification of DNA containing unnatural base pairs, OneTaq (Example 1); conditions: OneTaq
Method: (§1) The triphosphates of the 6 group were prepared from the previously reported nucleosides (Kubelka, T., Slavetinska, L., Eigner, V. and Hocek, M. Synthesis of 2,6-disubstituted pyridin-3-yl C-2′-deoxyribonucleosides through chemoselective transformations of bromo-chloropyridine C-nucleosides. Org. Biomol. Chem., 11, 4702-4718) according to Ludwig, J. and Eckstein, F. Rapid and efficient synthesis of nucleoside 5′-0-(1-thiotriphosphates), 5′-triphosphates and 2′,3′-cyclophosphorothioates using 2-chloro-4H-1,3,2-benzodioxaphosphorin-4-one. J. Org. Chem., 54, 631-635. The purity of all other triphosphates was confirmed by MALDI-TOF and UV-VIS. Taq and OneTaq DNA polymerases were purchased from New England Biolabs (Ipswich, Mass.). A mixture of dNTPs was purchased from Fermentas (Glen Burnie, Md.). SYBR Green I Nucleic Acid Gel Stain (10,000×) was purchased from Life Technologies (Carlsbad, Calif.). The synthesis of the DNA templates, D8 (Malyshev, D. A., Dhami, K., Quach, H. T., Lavergne, T., Ordoukhanian, P., Torkamani, A. and Romesberg, F. E. Efficient and sequence-independent replication of DNA containing a third base pair establishes a functional six-letter genetic alphabet. Proc. Natl. Acad. Sci. USA, 109, 12005-12010), used for screening rounds 1-5, and D6 (Malyshev, D. A., Seo, Y. J., Ordoukhanian, P. and Romesberg, F. E. PCR with an expanded genetic alphabet. J. Am. Chem. Soc., 131, 14620-14621), used for all other amplifications, was described previously. Sanger sequencing was carried out as described previously (Malyshev, D. A., Dhami, K., Quach, H. T., Lavergne, T., Ordoukhanian, P., Torkamani, A. and Romesberg, F. E. Efficient and sequence-independent replication of DNA containing a third base pair establishes a functional six-letter genetic alphabet. Proc. Natl. Acad. Sci. USA, 109, 12005-12010). Raw Sanger sequencing traces were used to determine the percent retention of the unnatural base pairs, which was converted to fidelity per doubling, as described (Malyshev, D. A., Dhami, K., Quach, H. T., Lavergne, T., Ordoukhanian, P., Torkamani, A. and Romesberg, F. E. Efficient and sequence-independent replication of DNA containing a third base pair establishes a functional six-letter genetic alphabet. Proc. Natl. Acad. Sci. USA, 109, 12005-12010; Malyshev, D. A., Seo, Y. J., Ordoukhanian, P. and Romesberg, F. E. PCR with an expanded genetic alphabet. J. Am. Chem. Soc., 131, 14620-14621).
(§2) All PCR amplifications were performed in a CFX Connect Real-Time PCR Detection System (Bio-Rad), in a total volume of 25 μL using the following conditions: 1× OneTaq reaction buffer, 0.5× Sybr Green I, MgSO4 adjusted to 4.0 mM, 0.2 mM of each dNTP, 50 μM of each unnatural triphosphate, […] of Primer1 and Primer2 (See Table 2), and 0.02 U/μl of the DNA polymerase. Other conditions specific for each round of screening are described in Table 3. Amplified products were purified using DNA Clean and Concentrator-5 spin columns from Zymo Research (Irvine, Calif.). After purification, the PCR products were sequenced on a 3730 DNA Analyzer (Applied Biosystems) to determine the retention of the unnatural base pair as described below. Fidelity was characterized from unnatural base pair (UBP) retention as determined by sequencing with Primer1 on a 3730 DNA Analyzer (Applied Biosystems).
(§3) Specific PCR assay conditions. PCR with the most promising UBPs was carried out with the conditions as described in Table 3. PCR products were further purified on […] gels, followed by single band excision and subsequent clean up using the Zymo Research Zymoclean Gel DNA Recovery Kit. After elution with 20 μl of water, the DNA concentration was measured using fluorescent dye binding (Quant-iT dsDNA HS Assay kit, Life Technologies), and purified amplicons were sequenced in triplicate with both Primer1 and Primer2 to determine UBP retention and thus amplification fidelity. […]

Taq polymerase [2] = biological target: T2, Taq polymerase (Thermus aquaticus, UniProt P19821); test: PCR-based screen and amplification of DNA containing unnatural base pairs, Taq (Example 1); conditions: Taq, 10 s Extension, 52 cycles, D6 template
T2 construct: purchased New England Biolabs (Ipswich, Mass.)
Method: as §1, §2, §3

OneTaq = test: PCR amplification assay to determine fidelity, OneTaq (Example 3)
Method: (§4) PCR assay. PCR amplifications were performed in a total volume of 25 μL and with conditions specific for each assay as described in Table 9. After amplification, a 5 μL aliquot was analyzed on a 6% non-denaturing PAGE gel ran along with 50 bp ladder (Life Technologies) to confirm amplicon size. The remaining solution was purified by spin-column (DNA Clean and Concentrator-5; Zymo Research, Irvine, Calif.), followed by 4% agarose gel, recovered with Zymoclean Gel DNA Recovery Kit (Zymo Research), quantified by fluorescent dye binding (Quant-iT dsDNA HS Assay kit, Life Technologies), and sequenced on a 3730 DNA Analyzer (Applied Biosystems). Fidelity was determined as the average % retention of the unnatural base pair per doubling as described below.
(§5) Determination of fidelity. The percent retention of an unnatural base pair (F) was measured using raw sequencing data and normalized to fidelities per doubling. Briefly, the presence of an unnatural nucleotide leads to a sharp termination of the sequencing profile, while mutation to a natural nucleotide results in “readthrough”. The extent of the “read-through” is thus inversely correlated with the retention of the unnatural base pair. To use the sequencing data as a quantitative measurement of PCR fidelity, we performed calibration experiments in the range of 50-100% retention of the unnatural base pair. Therefore, low retention (<50%) and high “read-through” make the quantification inaccurate.
(§6) Quantification of the high retention (>50%) was performed by adjusting the start and stop points for the Sequencing Analysis software (Applied Biosystems) and then determining the average signal intensity individually for each channel (A, C, G and T) for peaks within those defined points (35-45 nucleotides in length) before (section L) and S36 after (section R) the unnatural nucleotide. The R/L ratio was normalized using sequencing calibration plots to account for both noise in the sequencing chromatograms and the read-through in the control samples. […]

Taq polymerase [3] = biological target: T2, Taq polymerase; test: PCR amplification assay to determine fidelity, Taq (Example 3)
Method: as §4, §5, §6

[4] = 1 min Extension, 52 cycles, D6 template
[5] = OneTaq, standard PCR conditions

T1 sequence (P00582 324-928): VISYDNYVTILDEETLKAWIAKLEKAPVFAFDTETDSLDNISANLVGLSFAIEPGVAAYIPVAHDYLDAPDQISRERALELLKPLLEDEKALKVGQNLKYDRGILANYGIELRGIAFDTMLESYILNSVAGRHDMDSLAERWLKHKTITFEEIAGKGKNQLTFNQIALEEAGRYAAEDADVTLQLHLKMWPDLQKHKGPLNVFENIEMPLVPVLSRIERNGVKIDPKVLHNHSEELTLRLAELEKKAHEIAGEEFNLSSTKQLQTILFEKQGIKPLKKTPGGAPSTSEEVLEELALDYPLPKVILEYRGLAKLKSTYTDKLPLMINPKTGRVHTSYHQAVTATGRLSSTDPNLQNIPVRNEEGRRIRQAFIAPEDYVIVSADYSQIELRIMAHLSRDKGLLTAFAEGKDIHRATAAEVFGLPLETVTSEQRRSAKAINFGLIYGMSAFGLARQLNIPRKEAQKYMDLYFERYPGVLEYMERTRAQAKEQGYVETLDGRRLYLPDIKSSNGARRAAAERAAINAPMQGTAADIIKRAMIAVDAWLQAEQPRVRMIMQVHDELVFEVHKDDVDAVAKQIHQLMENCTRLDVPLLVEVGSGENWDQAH
T2 sequence (P19821 whole entry): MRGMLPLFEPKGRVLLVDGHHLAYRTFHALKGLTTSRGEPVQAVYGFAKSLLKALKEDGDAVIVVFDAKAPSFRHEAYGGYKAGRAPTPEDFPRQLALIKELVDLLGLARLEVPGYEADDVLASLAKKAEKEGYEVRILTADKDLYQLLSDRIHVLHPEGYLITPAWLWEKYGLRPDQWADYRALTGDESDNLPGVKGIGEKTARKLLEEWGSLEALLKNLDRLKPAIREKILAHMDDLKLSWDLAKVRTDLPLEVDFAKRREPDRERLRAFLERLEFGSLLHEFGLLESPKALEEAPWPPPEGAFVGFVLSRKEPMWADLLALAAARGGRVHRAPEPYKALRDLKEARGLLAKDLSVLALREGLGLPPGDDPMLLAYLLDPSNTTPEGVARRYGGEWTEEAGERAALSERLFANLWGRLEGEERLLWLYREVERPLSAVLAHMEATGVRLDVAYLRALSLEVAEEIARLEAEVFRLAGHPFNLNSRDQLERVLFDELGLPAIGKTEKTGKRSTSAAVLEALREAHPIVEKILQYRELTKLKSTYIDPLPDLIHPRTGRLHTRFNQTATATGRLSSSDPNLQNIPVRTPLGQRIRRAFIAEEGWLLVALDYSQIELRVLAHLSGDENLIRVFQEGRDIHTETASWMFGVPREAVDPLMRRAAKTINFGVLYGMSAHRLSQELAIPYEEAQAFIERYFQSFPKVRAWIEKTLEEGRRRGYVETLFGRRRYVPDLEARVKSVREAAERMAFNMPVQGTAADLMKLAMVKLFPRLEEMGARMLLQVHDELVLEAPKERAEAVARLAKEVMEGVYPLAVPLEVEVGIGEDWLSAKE

Compound	% Incorporation [1] [%]	% Extension [1] [%]	Amplification, ×10^12 (OneTaq polymerase; [4])	Fidelity per Doubling, % (OneTaq polymerase; [4]) [%]	Retention, % (OneTaq polymerase; [4]) [%]	Amplification, ×10^12 (Taq polymerase [2])	Fidelity per Doubling, % (Taq polymerase [2]) [%]	Retention, % (Taq polymerase [2]) [%]	also measured
Cc1cc2c(=S)n([C@H]3C[C@H](O)[C@@H](COP(=O)(O)OP(=O)(O)OP(=O)(O)O)O3)ccc2o1 [FPT1]	7.2 ± 0.2	32.0 ± 1.5							
O=P(O)(O)OP(=O)(O)OP(=O)(O)OC[C@H]1O[C@@H](n2cc(F)c3ccsc3c2=S)C[C@@H]1O [FTPT3]	66.3 ± 0.5	33.8 ± 0.2							
Cc1cc2c(=S)n([C@H]3C[C@H](O)[C@@H](COP(=O)(O)OP(=O)(O)OP(=O)(O)O)O3)ccc2s1 [TPT1]	28.7 ± 0.5	8.8 ± 0.2							
Cc1cc2ccn([C@H]3C[C@H](O)[C@@H](COP(=O)(O)OP(=O)(O)OP(=O)(O)O)O3)c(=S)c2s1 [TPT2]	65.7 ± 0.5	34.5 ± 0.5							
C#Cc1cc(OC)c([C@H]2C[C@H](O)[C@@H](COP(=O)(O)OP(=O)(O)OP(=O)(O)O)O2)cc1F.O=P(O)(O)OP(=O)(O)OP(=O)(O)OC[C@H]1O[C@@H](n2ccc3ccsc3c2=S)C[C@@H]1O [TPT3-FEMO]			10.4 ×10^12	99.55 ± 0.03	82.2 ± 1.0	5.0 ×10^12	99.44 ± 0.09	79 ± 3	
COc1cc(I)c(F)cc1[C@H]1C[C@H](O)[C@@H](COP(=O)(O)OP(=O)(O)OP(=O)(O)O)O1.O=P(O)(O)OP(=O)(O)OP(=O)(O)OC[C@H]1O[C@@H](n2ccc3ccsc3c2=S)C[C@@H]1O [TPT3-FIMO]			8.7 ×10^12	99.61 ± 0.03	84.7 ± 1.1	8.5 ×10^12	99.60 ± 0.09	84 ± 3	
COc1cc2ccccc2cc1[C@H]1C[C@H](O)[C@@H](COP(=O)(O)OP(=O)(O)OP(=O)(O)O)O1.O=P(O)(O)OP(=O)(O)OP(=O)(O)OC[C@H]1O[C@@H](n2ccc3ccsc3c2=S)C[C@@H]1O [TPT3-NaM]			8.3 ×10^12	99.79 ± 0.03	91.2 ± 1.3	5.8 ×10^12	99.66 ± 0.01	86.5 ± 0.5	Fidelity, % (OneTaq polymerase; 16 cycles, 1 min extension): 99.92 ± 0.11%; Retention, % (OneTaq polymerase; 16 cycles, 1 min extension): 99.23 ± 1.12%; Amplification (OneTaq polymerase; 16 cycles, 1 min extension, -^a = no amplification was detected): 1004; Fidelity, % (OneTaq; OneTaq PCR (48 cycles), D6 template, dXTP with dNaMTP): > 99.98%; amplification efficiency relative to DNA containing just the natural base pairs (OneTaq; [5]): 4 fold lower; error rate (OneTaq; [5]): 10^−4 per nucleotide; Fidelity, % (Taq polymerase [3]; Taq PCR (20 cycles), D6 template, dXTP with dNaMTP): 99.7%; amplification efficiency relative to a natural base pair (Taq polymerase [3]; Taq polymerase): 2.5 fold lower; error rate (Taq polymerase [3]; Taq polymerase): 10^−3
